Seven molecules from patent US20160318928A1, “TRICYCLIC COMPOUNDS AS ANTICANCER AGENTS” (BRISTOL-MYERS SQUIBB COMPANY, priority 2013, published 2016) can be followed below.

Experiment [1] has as its system H187 Human Small Cell Carcinoma. Nature of the experiment: Human tumor xenograft model in mice, H187. Type of experiment: in vivo. The source says:
(§1) Human Tumor Xenograft Models in Mice
(§2) All rodents were obtained from Jackson Laboratory. (Bar Harbor, Me.), and maintained in an ammonia-free environment in a defined and pathogen-free colony. All mice were quarantined approximately 1 week prior to their use for tumor propagation and drug efficacy testing. Mice were fed food and water ad libitum. The animal care program of Bristol-Myers Squibb Pharmaceutical Research Institute is fully accredited by the American Association for Accreditation of Laboratory Animal Care (AAALAC). All experiments were performed in accordance with Bristol-Myers Squibb (BMS) animal test methods and guidelines.
(§3) Tumor xenografts were grown and maintained subcutaneously (SC) in NSG (NOD scid IL2 receptor gamma chain knockout) mice (Jackson Lab). Tumors were propagated as subcutaneous transplants using tumor fragments obtained from donor mice.
(§4) Preclinical Chemotherapy Trials
(§5) The required numbers of animals needed to detect a meaningful response were pooled at the start of the experiment and each was given bilateral subcutaneous implants of two tumor fragments (˜20 mg) with a 13-gauge trocar. Tumors were allowed to grow to the pre-determined size window (tumors outside the range were excluded) and animals were evenly distributed to various treatment and control groups. There were typically 6-8 mice per treatment and control groups, consisting of 10-12 tumors. Treatment of each animal was based on individual body weight. Treated animals were checked daily for treatment related toxicity/mortality. Each group of animals was weighed before the initiation of treatment (WO and then again following the last treatment dose (Wt2). The difference in body weight (Wt2-Wt1) provides a measure of treatment-related toxicity.
(§6) Tumor response was determined by measurement of tumors with a caliper twice a week, until the tumors reached a predetermined “target” size of 0.5 gm or 1 gm depending on the tumor type. Tumor weights (mg) were estimated from the formula:
(§7) Tumor weight=(length×width^2)÷2
(§8) Tumor response criteria are expressed in terms of tumor growth inhibition (% TGI). Tumor growth delay is defined as the difference in time (days) required for the treated tumors (T) to reach a predetermined target size compared to those of the control group (C). For this purpose, the tumor weight of a group is expressed as medium tumor weight (MTW).
(§9) Tumor growth inhibition is calculated as follows:
(§10) where, Ct=Median control tumor size at end of treatment C0=Median control tumor size at treatment initiation Tt=Median tumor size of treated group at end of treatment T0=Median tumor size of treated group at treatment initiation
(§11) Tumor response was also expressed in terms of tumor growth delay and expressed as log cell kill (LCK value), defined as the difference in time (days) required for the treated tumors (T) to reach a predetermined target size compared to those of the control group (C).
(§12) Whenever possible, antitumor activity was determined at a range of dose levels up to the maximum tolerated dose (MTD) which is defined as the dose level immediately […] which excessive toxicity (i.e. more than one death) occurred. When death occurred, the day of death was recorded. Treated mice dying prior to having their tumors reach target size were considered to have died from drug toxicity. No control mice died bearing tumors less than target size. Treatment groups with more than one death caused by drug toxicity were considered to have had excessively toxic treatments and their data were not included in the evaluation of a compound's antitumor efficacy.
(§13) For administration of BET inhibitors to rodents, compounds were dissolved in […]/10% TPGS/10% Ethanol. BET inhibitors were typically administered orally on a schedule of QDx7 or QDx10 (5 day-on-2 day-off), although other schedules had also been evaluated and shown to be efficacious
(In general: A xenograft is tissue or cells of one species grown in another, often human tumour cells in immunodeficient mice.)

For experiment [2], the system named is JJN3R multiple myeloma cell line. The experiment in a line: Human tumor xenograft model in mice, JJN3R. Type of experiment: in vivo. The settings on record: Mus musculus, JJN-3R, po, QDx7, read-out: % TGI.
From the text: as §1, §2, §3, §4, §5, §6, §7, §8, §9, §10, §11, §12, §13

Experiment [3] concerns the target BRD4 (Homo sapiens, UniProt O60885). Nature of the experiment: Time resolved fluorescence resonance energy transfer (TR-FRET) binding assay, BRD4 bromodomain. Conditions: one of the FRET assays described.

As to `Cc1nnn(C)c1-c1cnc2c3ccc(C(C)(C)O)cc3n([C@H](c3ccccc3)C3CCOCC3)c2c1` (single isomer, unassigned) [Example 54], in experiment [1] (5 mg/kg, QDx7), the “% TGI” value was 100.0% and the LCK is listed as 0.7. Besides, in experiment [1] (10 mg/kg, QDx7), the “% TGI” value stood at 102.0% and the LCK is on record as 0.9.

As to `[2H]C([2H])([2H])c1nnn(C)c1-c1cnc2c3ccc([C@@](C)(O)C4CC4)c(F)c3n([C@H](c3ccccc3)C3CCOCC3)c2c1` [Example 433, (1 S)-1-cyclopropyl-1-{6-fluoro-3-[4-(^2H3)methyl-1-methyl-1H-1,2,3-triazol-5-yl]-5-[(S)-oxan-4-yl(phenyl)methyl]-5H-pyrido[3,2-b]indol-7-yl}ethan-1-ol], the inhibition in vivo at 1 mg/kg in experiment [2] is 54%.

Consider `Cc1noc(C)c1-c1cnc2c3ccc(C(C)(C)O)cc3n(C(c3ccccc3)C3CCOCC3)c2c1` (single isomer, unassigned) [Example 1, 2-[3-(Dimethyl-1,2-oxazol-4-yl)-5-[oxan-4-yl(phenyl)methyl]-5H-pyrido[3,2-b]indol-7-yl]propan-2-ol], for which the “% TGI” value is given as 88.0% in experiment [1] (5 mg/kg, 2QDx7) and 104.0% in experiment [1] (15 mg/kg, 2QDx7). Besides, the LCK in experiment [1] (5 mg/kg, 2QDx7) is given as 1.0; in experiment [1] (15 mg/kg, 2QDx7) it was 1.2.

For `[2H]C([2H])([2H])c1nnn(C)c1-c1cnc2c3cc(F)c(C(C)(C)O)cc3n([C@H](c3ccccc3F)C3CCOCC3)c2c1` [Example 276, 2-{8-Fluoro-5-[(S)-(2-fluorophenyl)(oxan-4-yl)methyl]-3-[4-(^2H3)methyl-1-methyl-1H-1,2,3-triazol-5-yl]-5H-pyrido[3,2-b]indol-7-yl}propan-2-ol], in experiment [2], the inhibition in vivo at 1 mg/kg turned out to be 56% and the inhibition in vivo at 4 mg/kg was found to be 95%.

Consider `[2H]C([2H])([2H])c1nnn(C)c1-c1cnc2c3ccc(C(C)(C)O)c(F)c3n([C@H](c3ccccc3)C3CCOCC3)c2c1` [Example 278, 2-{6-Fluoro-3-[4-(^2H3)methyl-1-methyl-1H-1,2,3-triazol-5-yl]-5-[(S)-oxan-4-yl(phenyl)methyl]-5H-pyrido[3,2-b]indol-7-yl}propan-2-ol], for which, in experiment [2], the inhibition in vivo at 1 mg/kg was 103% and the inhibition in vivo at 4 mg/kg came out at 110%.

`[2H]C([2H])([2H])c1nnn(C)c1-c1cnc2c3cc(F)c(C(C)(C)O)cc3n([C@H](c3ccccc3)C3CCOCC3)c2c1` [Example 279, 2-{8-Fluoro-3-[4-(^2H3)methyl-1-methyl-1H-1,2,3-triazol-5-yl]-5-[(S)-oxan-4-yl(phenyl)methyl]-5H-pyrido[3,2-b]indol-7-yl}propan-2-ol]: in experiment [2], the inhibition in vivo at 1 mg/kg is 88% and the inhibition in vivo at 4 mg/kg is 110%.

For `[2H]C([2H])([2H])c1nnn(C)c1-c1cnc2c3ccc(C(C)(C)O)cc3n(C(c3ccc(F)cc3)C3CCOCC3)c2c1` (stereo not drawn) [Example 267], the IC50 – broadly, the point on the concentration scale where inhibition reaches its midpoint – in experiment [3] was under 5 nM. Besides, in experiment [2], the inhibition in vivo at 1 mg/kg was 10% and the inhibition in vivo at 4 mg/kg came to 67%.
